From the supplement of paper PMC10307832

Columns and labels:
Test in all cases: relative viability (nuclei count vs DMSO), 5 days (fraction); higher = more cells survive
[1] = compound: Cc1ccc(NC(=O)c2ccc(CN3CCN(C)CC3)cc2)cc1Nc1nccc(-c2cccnc2)n1 [Imatinib] + CC(C)C[C@H](NC(=O)[C@H](Cc1ccccc1)NC(=O)c1cnccn1)B(O)O [Bortezomib] (partner 0.002 µM)
Summary of the method: (§1)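 Cells from lung cancer lines were seeded into 1536-well plates and, one day later, dosed by pin tool. Treatments were either a single drug or a fixed dose of an anchor drug with five library-drug doses (not always all listed) in √10 steps. After 5 days, nuclei were stained in a one-step fixation (final 0.05% Triton X-100, 1% formaldehyde, 1 ug/ml Hoechst) and counted on 4× images, and relative viability is the treated-to-vehicle nuclei ratio, as the median of duplicate plates.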

[2] = compound: Cc1ccc(NC(=O)c2ccc(CN3CCN(C)CC3)cc2)cc1Nc1nccc(-c2cccnc2)n1 [Imatinib] + CS(=O)(=O)CCNCc1ccc(-c2ccc3ncnc(Nc4ccc(OCc5cccc(F)c5)c(Cl)c4)c3c2)o1 [Lapatinib] (partner 2 µM)
Summary of the method: as §1

[3] = compound: Cc1ccc(NC(=O)c2ccc(CN3CCN(C)CC3)cc2)cc1Nc1nccc(-c2cccnc2)n1 [Imatinib] + CS(=O)(=O)N1CCN(Cc2cc3nc(-c4cccc5[nH]ncc45)nc(N4CCOCC4)c3s2)CC1 [Pictilisib] (partner 1 µM)
Summary of the method: as §1

[4] = compound: Cc1ccc(NC(=O)c2ccc(CN3CCN(C)CC3)cc2)cc1Nc1nccc(-c2cccnc2)n1 [Imatinib] + Cc1nc(NC(=O)N2CCC[C@H]2C(N)=O)sc1-c1ccnc(C(C)(C)C(F)(F)F)c1 [Alpelisib] (partner 2 µM)
Summary of the method: as §1

Row | Cell Line | relative viability ([1]; first compound 0.02 µM) | relative viability ([1]; first compound 0.06325 µM) | relative viability ([1]; first compound 0.2 µM) | relative viability ([1]; first compound 0.6325 µM) | relative viability ([1]; first compound 2 µM) | relative viability ([2]; first compound 0.02 µM) | relative viability ([2]; first compound 0.06325 µM) | relative viability ([2]; first compound 0.2 µM) | relative viability ([2]; first compound 0.6325 µM) | relative viability ([2]; first compound 2 µM) | relative viability ([3]; first compound 0.02 µM) | relative viability ([3]; first compound 0.06325 µM) | relative viability ([3]; first compound 0.2 µM) | relative viability ([3]; first compound 0.6325 µM) | relative viability ([3]; first compound 2 µM) | relative viability ([4]; first compound 0.02 µM) | relative viability ([4]; first compound 0.06325 µM) | relative viability ([4]; first compound 0.2 µM) | relative viability ([4]; first compound 0.6325 µM) | relative viability ([4]; first compound 2 µM)
1 | NCI-H2085 | 1.05 | 0.902 | 1.08 | 1.13 | 1.04 | 0.754 | 0.591 | 0.733 | 0.819 | 0.694 | 0.448 | 0.462 | 0.472 | 0.594 | 0.434 | 1 | 0.937 | 1.05 | 1.01 | 0.876
2 | NCI-H2087 | 0.868 | 0.963 | 0.689 | 0.727 | 0.604 | 1.06 | 0.654 | 1.21 | 1.05 | – | 1.13 | 0.44 | 0.796 | – | 0.858 | 0.975 | 1.19 | 1.23 | 0.96 | 1.05
3 | NCI-H2228 | 1.13 | 0.782 | 1.14 | 1.01 | 0.895 | 1.31 | 1.02 | 1.03 | 1.01 | 0.843 | 0.525 | 0.178 | 0.427 | 0.534 | 0.52 | 0.814 | 0.782 | 0.724 | 0.626 | 0.807
4 | NCI-H2347 | 0.846 | – | 1.04 | 1 | 0.876 | 0.995 | 0.913 | 1.05 | 1.04 | 0.91 | 0.414 | 0.508 | 0.64 | 0.453 | 0.738 | 1.15 | 0.968 | 0.933 | 1.11 | 1.09
5 | NCI-H2405 | – | 0.857 | 0.92 | 1.01 | 0.983 | 1.05 | – | 1.1 | 0.961 | 1.15 | 0.482 | – | 0.428 | 0.353 | 0.52 | 0.922 | – | 0.823 | 0.643 | 0.95
6 | NCI-H3122 | 0.985 | 1.06 | 1.04 | 0.96 | 1.05 | 1.03 | 1.04 | – | 1.02 | 0.989 | 0.647 | 0.551 | 0.572 | 0.666 | 0.679 | 0.763 | 0.939 | 0.894 | 0.865 | 0.837
7 | PC-3 [JPC-3] | 0.887 | – | 0.832 | 0.864 | 0.711 | 0.503 | – | 0.48 | 0.462 | 0.431 | 0.715 | – | – | 0.774 | 0.653 | 1.08 | – | 1.03 | 1.05 | 0.979
8 | PC-14 | 0.923 | 0.911 | 0.96 | 0.949 | 0.844 | 0.388 | 0.24 | 0.301 | 0.321 | 0.317 | 0.69 | – | 0.874 | 0.688 | 0.859 | 1.15 | – | 1.13 | 0.926 | 0.854
9 | RERF-LC-KJ | 1.13 | 1.1 | 1.32 | – | 0.909 | – | 0.853 | 0.498 | 0.819 | 0.763 | 0.636 | 0.422 | 0.541 | 0.487 | 0.498 | 0.841 | 0.723 | 0.8 | – | 0.8
10 | SK-LU-1 | 1.59 | 1.22 | 1.31 | 1.1 | 1.26 | 1.08 | 1.1 | 1.11 | – | 0.82 | 0.738 | 0.682 | 0.633 | – | 0.611 | 1.07 | 1.37 | 1.19 | 0.962 | –
11 | SW 1573 | 1.05 | 1.43 | 1.2 | 1.03 | 1.12 | 1.33 | 0.676 | 1.28 | 0.983 | 1.17 | 0.623 | 0.501 | 0.528 | 0.561 | 0.483 | 0.826 | 0.785 | 1.13 | 0.842 | 0.927
12 | UMC-11 | 0.707 | 0.841 | 0.939 | 0.844 | 0.668 | 1.01 | 1.1 | 1.25 | 0.995 | 0.994 | 0.81 | 0.749 | 1 | 1.06 | 0.837 | 0.982 | 1.18 | 0.957 | 1.03 | 1.03
